Laboratory results taken from US20110166132A1, “Gamma Secretase Modulators” (Amgen Inc., priority 2007, published 2011).

Molecular target: T1, gamma secretase (Homo sapiens, UniProt P49768)
T1 construct: HEK293 cells stably expressing full length Amyloid Precursor Protein (APP); endogenous in cells; host or cells: HEK 293 cells stably expressing full length APP
Assay: GSM cell-based assay: Aβ 42 inhibition or reduction in HEK 293 cells over-expressing APP (sandwich ELISA)
Details: approximate IC50; HEK293 cells stably expressing full length APP, 24 hours incubation, 10-point dose response starting at 10 μM
Excerpt: GSM cell-based assays were designed to measure the modulation of Aβ 42 from HEK 293 cells over-expressing APP.
Three simultaneous cell-based assays, namely Aβ 42 inhibition or reduction, Aβ 40 inhibition or reduction and a measurement of cell viability of the cells from which the Aβ 42/40 readout was obtained, together gave an interpretation of gamma secretase modulation (GSM). The assays measure Aβ 42 and Ab 40 from conditioned medium of test compound treated HEK 293 cells.
HEK293 cells stably expressing full length Amyloid Precursor Protein (APP) were plated at a density of 100K cells/well in 96 well plates (Costar). The cells were cultivated for 6 hours at 37° C. and 5% CO2 in DMEM supplemented with 10% FBS. The test compounds were then added to cells in 10-point dose response concentrations with the starting concentration being 10 μM. The compounds were diluted from stock solutions in DMSO and the final DMSO concentration of the test compounds on cells was 0.1%. After 24 hours of incubation with the test compounds the supernatant conditioned media was collected and the Aβ 42, Aβ 40 levels were determined using a sandwich ELISA. A cell viability test (CellTiter-Blue Cell Viability assay, Promega) on the cells from which the conditioned medium was harvested for Aβ 42 or Aβ 40 readouts gave an indication of cell survivability as a possible reason for false positive Aβ 42 or 40 reduction or inhibition readout. The IC50 of the compound (for either Aβ 42 or Aβ 40) was calculated from the percent of control or percent inhibition of Aβ 42 or Aβ 40 as a function of the concentration of the test compound.
The sandwich ELISA to detect Aβ 42 or Aβ 40 was performed in 96 well microtiter plates, which were pre-treated with goat anti-rabbit IgG (Pierce). The capture and detecting antibody pair that were used to detect Aβ 42 and Aβ 40 from cell supernatants were rabbit monoclonal Antibody 42 (RabMAb 42) and affinity purified polyclonal Antibody 40 pAB40 (Biosource) as capture antibodies and biotinylated 6E10 (Signet Labs Inc.) as detection antibody. The optimal concentration for RabMAb 42 was 1 μg/ml in Superblock/TBS (Pierce) that was supplemented with 0.05% Tween 20 (Sigma). The optimal concentration for the pAb40 antibody was 3 μg/ml in Superblock/TBS (Pierce) that was supplemented with 0.05% Tween 20 (Sigma). Optimal concentration for the detection antibody 6E10-biotinylated was 0.5 μg/ml in Superblock/TBS (Pierce) that had been supplemented with 2% normal goat serum and 2% normal mouse serum.
Cellular supernatants were incubated with the capture antibody for 16-20 hours at 4° C., followed by 3 wash steps in TBS-tween (0.05%). The detecting antibody incubation was for 3 hours at 4° C., again followed by the wash steps as described previously. The final readout of the ELISA is Time-Resolved Fluorescence (counts per minute) using Delfia reagents Streptavidin-Europium and Enhancement solutions (Perkin Elmer) and the EnVision Multilabel plate reader (Perkin Elmer).

IC50 [µM]	Structure (SMILES)
> 10	Cc1cc(-c2ccc(NC(=O)C3CCN(Cc4ccccc4)CC3)cc2)ccn1 [Cpd 312]
> 10	Cc1cc(-c2ccc(NC(=O)c3cc4ccc(F)cc4s3)cc2)ccn1 [Cpd 314]
2.16	Cc1cc(-c2ccc(NC(=O)c3cn4cc(Br)ccc4n3)cc2)ccn1 [Cpd 315]
> 10	Cc1cc(-c2ccc(NC(=O)Cc3cccc(C#N)c3)cc2)ccn1 [Cpd 321, 2-(3-cyanophenyl)-N-(4-(2-methyl-4-pyridinyl)phenyl)acetamide]
2.69	Cc1cc(-c2ccc(NC(=O)C3CCCc4ccccc43)cc2)ccn1 (stereo not shown) [Cpd 322]
1.17	Cc1cc(-c2ccc(NC(=O)C3(c4ccc(Cl)cc4Cl)CC3)cc2)ccn1 [Cpd 332]
> 10	Cc1cc(-c2ccc(NC(=O)C(C)(C)c3cc(C(F)(F)F)cc(C(F)(F)F)c3)cc2)ccn1 [Cpd 336]
1.35	Cc1cccc(C(C(=O)Nc2ccc(-c3ccnc(C)c3)cc2)C(C)C)c1 (stereo not shown) [Cpd 338, 3-methyl-2-(3-methylphenyl)-N-(4-(2-methyl-4-pyridinyl)phenyl)butanamide]
> 10	CC[C@@H](C(=O)Nc1ccc(-c2ccnc(C)c2)cc1)c1ccccc1 [Cpd 344, (2R)-N-(4-(2-methyl-4-pyridinyl)phenyl)-2-phenylbutanamide]
1.87	CC[C@H](C(=O)Nc1ccc(-c2ccnc(C)c2)cc1)c1ccccc1 [Cpd 345, (2S)-N-(4-(2-methyl-4-pyridinyl)phenyl)-2-phenylbutanamide]
2.39	Cc1cc(-c2ccc(NC(=O)Cc3ccc(F)c(C(F)(F)F)c3)cc2)ccn1 [Cpd 351, 2-(4-fluoro-3-(trifluoromethyl)phenyl)-N-(4-(2-methyl-4-pyridinyl)phenyl)acetamide]
2.65	CCCC(C(=O)Nc1ccc(-c2ccnc(C)c2)cc1)c1ccccc1 (stereo not shown) [Cpd 368, N-(4-(2-methyl-4-pyridinyl)phenyl)-2-phenylpentanamide]
0.874	Cc1cc(-c2ccc(NC(=O)c3cccc(-c4ccccc4)c3)cc2)ccn1 [Cpd 386]
1.02	Cc1cc(-c2ccc(NC(=O)C(C)n3ccc4ccccc43)cc2)ccn1 (stereo not shown) [Cpd 414, 2-(1H-indol-1-yl)-N-(4-(2-methyl-4-pyridinyl)phenyl)propanamide]
> 10	Cc1cc(-c2ccc(NC(=O)C(C)c3ccc(N)cc3)cc2)ccn1 (stereo not shown) [Cpd 419, 2-(4-aminophenyl)-N-(4-(2-methyl-4-pyridinyl)phenyl)propanamide]
1.84	Cc1cc(-c2ccc(NC(=O)C(C)c3cc(N4CCOCC4)cc(C(F)(F)F)c3)cc2)ccn1 (stereo not shown) [Cpd 441, N-(4-(2-methyl-4-pyridinyl)phenyl)-2-(3-(4-morpholinyl)-5-(trifluoromethyl)phenyl)-propanamide]
0.628	Cc1cc(-c2ccc(NC(=O)C(C)c3cccc(-c4ccc(S(C)(=O)=O)cc4)c3)cc2)ccn1 (stereo not shown) [Cpd 442, N-(4-(2-methyl-4-pyridinyl)phenyl)-2-(4′-(methylsulfonyl)-3-biphenylyl)propanamide]
0.302	Cc1cc(-c2ccc(NC(=O)C(C)c3ccc(NC(C)C)cc3)cc2)ccn1 (stereo not shown) [Cpd 443]
1.42	Cc1cc(-c2ccc(NC(=O)C(C)c3cccc(-c4ccc(OC(F)(F)F)cc4)c3)cc2)ccn1 (stereo not shown) [Cpd 453, N-(4-(2-methyl-4-pyridinyl)phenyl)-2-(4′-(trifluoromethoxy)-3-biphenylyl)-propanamide]
0.806	COc1cc(NC(=O)C(C)c2cc(F)cc(C(F)(F)F)c2)ccc1-c1ccnc(C)c1 (stereo not shown) [Cpd 454, 2-(3-fluoro-5-(trifluoromethyl)phenyl)-N-(3-methoxy-4-(2-methyl-4-pyridinyl)-phenyl)propanamide]

IC50 [µM]	Structure (SMILES)
0.908	Cc1cc(-c2ccc(NC(=O)C(C)n3cc(-c4ccccc4)c(C)n3)cc2)ccn1 (stereo not shown) [Cpd 455, 2-(3-methyl-4-phenyl-1H-pyrazol-1-yl)-N-(4-(2-methyl-4-pyridinyl)phenyl)-propanamide]
5.76	Cc1cc(-c2ccc(NC(=O)C(C)c3cccc(Br)c3)cc2C#N)ccn1 (stereo not shown) [Cpd 460, 2-(3-bromophenyl)-N-(3-cyano-4-(2-methyl-4-pyridinyl)phenyl)propanamide]
0.911	COc1cc(NC(=O)[C@H](C)c2cccc(Br)c2)ccc1-c1ccnc(C)c1 [Cpd 461, (2R)-2-(3-bromophenyl)-N-(3-methoxy-4-(2-methyl-4-pyridinyl)phenyl)propanamide]
2.13	Cc1cc(-c2ccc(NC(=O)C(C)c3ccc(N(C)C(C)C)cc3)cc2)ccn1 (stereo not shown) [Cpd 481, 2-(4-(methyl(1-methylethyl)amino)phenyl)-N-(4-(2-methyl-4-pyridinyl)phenyl)-propanamide]
> 10	Cc1cc(-c2ccc(NC(=O)C(C)c3ccc4c(c3)CCN4)cc2)ccn1 (stereo not shown) [Cpd 497, 2-(2,3-dihydro-1H-indol-5-yl)-N-(4-(2-methyl-4-pyridinyl)phenyl)propanamide]
> 10	COc1ncc(-c2cccc([C@@H](C)C(=O)Nc3ccc(-c4ccnc(C)c4)cc3)c2)cn1 [Cpd 502, (2R)-2-(3-(2-methoxy-5-pyrimidinyl)-phenyl)-N-(4-(2-methyl-4-pyridinyl)-phenyl)propanamide]
0.32	CC(=O)N1CCN(c2ccc(-c3cccc([C@@H](C)C(=O)Nc4ccc(-c5ccnc(C)c5)cc4)c3)cc2)CC1 [Cpd 522]
1.2	Cc1cc(-c2ccc(NC(=O)C(C)c3cccc(C4CC4)c3)cc2)ccn1 (stereo not shown) [Cpd 524, 2-(3-cyclopropylphenyl)-N-(4-(2-methyl-4-pyridinyl)phenyl)propanamide]
0.31	CCN(Cc1cc(OC)c(OC)c(OC)c1)c1ccc(C(C)C(=O)Nc2ccc(-c3ccnc(C)c3)cc2)cc1 (stereo not shown) [Cpd 526, 2-(4-(ethyl(3,4,5-trimethoxybenzyl)amino)-phenyl)-N-(4-(2-methyl-4-pyridinyl)-phenyl)propanamide]
> 10	Cc1cc(-c2ccc(NC(=O)CC3CCCC3)cc2)ccn1 [Cpd 558, 2-cyclopentyl-N-(4-(2-methyl-4-pyridinyl)-phenyl)acetamide]
> 10	COc1cc(C(C)C(=O)Nc2ccc(-c3ccnc(C)c3)cc2)ccc1N (stereo not shown) [Cpd 574, 2-(4-amino-3-methoxyphenyl)-N-(4-(2-methyl-4-pyridinyl)phenyl)propanamide]
1.52	COc1cc(C(C)C(=O)Nc2ccc(-c3ccnc(C)c3)cc2)ccc1NC(C)C (stereo not shown) [Cpd 575, 2-(3-methoxy-4-((1-methylethyl)amino)-phenyl)-N-(4-(2-methyl-4-pyridinyl)-phenyl)propanamide]
0.616	Cc1cc(-c2ccc(NC(=O)C(C)c3ccc(N4CCCCC4)nc3)cc2)ccn1 (stereo not shown) [Cpd 580, N-(4-(2-methyl-4-pyridinyl)phenyl)-2-(6-(1-piperidinyl)-3-pyridinyl)propanamide]
4.61	Cc1cc(-c2ccc(NC(=O)Cc3ccc4oc(-c5cccnc5)nc4c3)cc2)ccn1 [Cpd 583, N-(4-(2-methyl-4-pyridinyl)phenyl)-2-(2-(3-pyridinyl)-1,3-benzoxazol-5-yl)-acetamide]
> 10	Cc1cc(-c2ccc(NC(=O)Cc3ccc4oc(-c5ccncc5)nc4c3)cc2)ccn1 [Cpd 584, N-(4-(2-methyl-4-pyridinyl)phenyl)-2-(2-(4-pyridinyl)-1,3-benzoxazol-5-yl)-acetamide]
> 3.33	Cc1cc(-c2ccc(NC(=O)c3ccc(CN4CCOCC4)cc3)cc2)ccn1 [Cpd 625]
> 10	Cc1cc(C(C)C(=O)Nc2ccc(-c3ccnc(C)c3)cc2)cc(N2CCC(F)(F)CC2)c1 (stereo not shown) [Cpd 637, 2-(3-(4,4-difluoro-1-piperidinyl)-5-methyl-phenyl)-N-(4-(2-methyl-4-pyridinyl)-phenyl)propanamide]
> 10	Cc1cc(-c2ccc(NC(=O)[C@H](C)c3cccc(-c4ccc(C(=O)O)cc4)c3)cc2)ccn1 [Cpd 639]
5.1	Cc1cc(-c2ccc(NC(=O)c3ccc4[nH]c5c(c4c3)CSCC5)cc2)ccn1 [Cpd 662]

Structure (SMILES)	IC50 [µM]
Cc1cc(-c2ccc(NC(=O)C(C)c3cccc(C4=CCNCC4)c3)cc2)ccn1 (stereo not shown) [Cpd 425, N-(4-(2-methyl-4-pyridinyl)phenyl)-2-(3-(1,2,3,6-tetrahydro-4-pyridinyl)phenyl)-propanamide]	> 10
